Our source for the Activity, IC50 and inhibition values is ChEMBL document CHEMBL4613275, “Sulfonimide and Amide Derivatives as Novel PPARα Antagonists: Synthesis, Antiproliferative Activity, and Docking Studies” (ACS Med Chem Lett, 2020).

Data set [1] deals with T1, Peroxisome proliferator-activated receptor gamma (Homo sapiens) (UniProt P37231).
T1 sequence (whole entry): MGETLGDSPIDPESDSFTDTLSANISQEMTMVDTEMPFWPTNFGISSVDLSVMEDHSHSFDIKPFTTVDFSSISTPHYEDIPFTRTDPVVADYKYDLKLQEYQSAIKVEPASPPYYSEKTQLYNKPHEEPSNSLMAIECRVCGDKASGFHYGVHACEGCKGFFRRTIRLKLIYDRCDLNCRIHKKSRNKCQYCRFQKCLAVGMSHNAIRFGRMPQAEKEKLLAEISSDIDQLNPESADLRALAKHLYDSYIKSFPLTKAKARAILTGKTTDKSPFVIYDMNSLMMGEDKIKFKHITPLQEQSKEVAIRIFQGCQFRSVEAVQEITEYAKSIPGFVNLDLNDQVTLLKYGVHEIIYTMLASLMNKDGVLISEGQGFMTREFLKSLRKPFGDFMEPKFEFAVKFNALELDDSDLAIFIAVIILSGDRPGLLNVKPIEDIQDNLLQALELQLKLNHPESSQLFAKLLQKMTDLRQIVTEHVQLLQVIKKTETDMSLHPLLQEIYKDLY
Nature of the data set: Effect on GAL4-tagged human PPARgamma LBD expressed in human HepG2 cells incubated for 20 to 22 hrs by luciferase reporter gene assay. Format: cell-based. On the technique in general: Reporter assays use an easily measured gene product as a stand-in for the process of interest.

The target in data set [2] is T2, Peroxisome proliferator-activated receptor alpha (Homo sapiens, UniProt Q07869).
T2 sequence (Q07869 whole entry): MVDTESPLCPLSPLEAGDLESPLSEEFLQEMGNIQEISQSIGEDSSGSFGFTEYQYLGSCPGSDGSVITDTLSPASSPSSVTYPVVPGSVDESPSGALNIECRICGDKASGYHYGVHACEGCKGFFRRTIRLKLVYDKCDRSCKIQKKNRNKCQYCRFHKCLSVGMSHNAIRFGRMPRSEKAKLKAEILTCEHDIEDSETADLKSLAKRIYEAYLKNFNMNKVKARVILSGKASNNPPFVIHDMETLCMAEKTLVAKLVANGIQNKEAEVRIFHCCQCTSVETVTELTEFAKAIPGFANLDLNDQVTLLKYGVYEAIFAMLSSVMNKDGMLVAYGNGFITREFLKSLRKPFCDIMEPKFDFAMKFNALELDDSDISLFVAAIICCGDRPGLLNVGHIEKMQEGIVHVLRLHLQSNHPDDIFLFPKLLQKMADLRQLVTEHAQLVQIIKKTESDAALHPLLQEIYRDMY
Description: Antagonist activity at GAL4-tagged human PPARalpha LBD expressed in human HepG2 cells assessed as inhibition of Wy14,643-induced receptor transactivation incubated for 20 to 22 hrs by luciferase reporter gene assay. The data set is classed as cell-based.

The target in data set [3] is T1, Peroxisome proliferator-activated receptor gamma (Homo sapiens). Nature of the data set: Agonist activity at GAL4-tagged human PPARgamma LBD expressed in human HepG2 cells incubated for 20 to 22 hrs by luciferase reporter gene assay. Format: cell-based.
The subject of the next data set is HepG2. Description: Cytotoxicity against human HepG2 cells at >5 uM. The data set is classed as cell-based.
Data set [4] is described as follows: Antiproliferative activity against human PTJ86i cells assessed as inhibition of cell growth at 75 uM incubated for 72 hrs by MTT assay relative to control. Format: functional. Background: Tetrazolium assays rely on reduction of a dye to a coloured formazan, in cell work by metabolically active cells.

The source made the active and inactive calls. No cut-off for these calls is given here.

For orientation: IC50 means the concentration that inhibits the measured activity by half. `CC(C)(Oc1ccc(CCOc2ccc(NC(=O)Nc3ccccc3)cc2)cc1)C(N)=O`: the outcome in data set [1] was inactive. For the same molecule, the IC50 in data set [2] stood at 3.32 µM.
Taken in the same sequence, the figures for `CC(C)(Oc1ccc(CCOc2ccc(NC(=O)Nc3ccccc3)cc2)cc1)C(=O)NS(=O)(=O)c1ccccc1` were “inactive” and 1.52 µM.
In the case of `CC(C)(Oc1ccc(CCOc2ccc(/N=N/c3ccccc3)cc2)cc1)C(=O)NS(=O)(=O)c1ccc(NC(=O)Cc2ccccc2)cc1`, the outcome in data set [1] was inactive. For the same molecule, the IC50 in data set [2] came to 3.2 µM.
Taken in the same sequence, the figures for `CC(C)(Oc1ccc(CCOc2ccc(NC(=O)c3ccccc3)cc2)cc1)C(=O)Nc1ccccc1` were “inactive” and 12.3 µM.
Consider `CCCCNC(=O)C(C)(C)Oc1ccc(CCOc2ccc(NC(=O)c3ccccc3)cc2)cc1`, for which the result in data set [1] was inactive.
For the molecule `CC(C)(Oc1ccc(CCOc2ccc(/N=N/c3ccccc3)cc2)cc1)C(=O)NS(C)(=O)=O`, the outcome in data set [3] was inactive. In addition, in the data set with HepG2, the Activity result is recorded as “Toxic”.
Take `CC(C)(Oc1ccc(CCOc2ccc(NC(=O)Nc3ccccc3)cc2)cc1)C(=O)Nc1ccccc1`: the outcome in data set [1] was inactive. In addition, the half-maximal inhibitory concentration (IC50) in data set [2] came to 6.1 µM.
Turning to `CC(C)(CCCOc1ccc(/C=C/c2ccccc2)cc1)C(=O)NS(=O)(=O)c1ccccc1`, in data set [3], the result was inactive. The Activity result in the data set with HepG2 is on record as “Toxic”.
In the case of `CC(C)(Oc1ccc(CCOc2ccc(/N=N/c3ccccc3)cc2)cc1)C(=O)Nc1ccccc1`, the result in data set [1] was inactive.
With `CC(C)(Oc1ccc(CCOc2ccc(NC(=O)c3ccccc3)cc2)cc1)C(N)=O`, the result in data set [1] was inactive. For the same molecule, the IC50 in data set [2] came to 7 µM.
For the molecule `CC(C)(CCCOc1ccc(/C=C/c2ccccc2)cc1)C(=O)NS(C)(=O)=O`, the result in data set [3] was inactive. In the data set on HepG2, the Activity result is listed as “Toxic”.
Take `CC(C)(Oc1ccc(CCOc2ccc(NC(=O)c3ccccc3)cc2)cc1)C(=O)NCc1ccccc1`: in data set [1], the outcome was inactive. Moreover, the IC50 in data set [2] is 12.1 µM.
As a reminder, the inhibition is the drop in the measured response relative to a control, in per cent. As to `CCC(=O)NC[C@H](Cc1ccc(OCCc2nc(-c3ccccc3)oc2C)cc1)N/C(C)=C\C(=O)c1ccc(C(F)(F)F)cc1`, the inhibition at 75 µM in data set [4] is 85 to 92%.
With `CC(C)(Oc1ccc(CCOc2ccc(NC(=O)Nc3ccccc3)cc2)cc1)C(=O)NCc1ccccc1`, the outcome in data set [1] was inactive. The IC50 in data set [2] amounted to 10.3 µM.
